{"source": "ChEMBL document CHEMBL5331048", "about": "“Recent progress toward developing axial chirality bioactive compounds” (Eur J Med Chem, 2022)", "key": {"Staphylococcus aureus [1]": {"test_system": "Staphylococcus aureus", "experiment": "Antibacterial activity against methicillin-resistant Staphylococcus aureus assessed as bacterial growth inhibition", "type": "functional"}, "HCT-116": {"test_system": "HCT-116", "experiment": "Anticancer activity against human HCT-116 cells assessed as cell growth inhibition", "type": "functional, cell-based"}, "Streptococcus iniae [2]": {"test_system": "Streptococcus iniae", "experiment": "Antibacterial activity against Streptococcus iniae FP 5228 assessed as bacterial growth inhibition", "type": "functional"}, "Streptococcus iniae [3]": {"test_system": "Streptococcus iniae", "experiment": "Potency index, ratio of oxytetracycline MIC to test compound MIC for antibacterial activity against Streptococcus iniae FP 5228", "type": "functional"}, "A-375": {"test_system": "A-375", "experiment": "Anticancer activity against human A-375 cells assessed as cell growth inhibition measured after 24 hrs by MTT assay", "type": "functional, cell-based", "conditions": "A-375, 24 h"}, "[4]": {"experiment": "Anticancer activity against human QGP-1 cells assessed as cell growth inhibition", "type": "functional, cell-based"}, "Caco-2": {"test_system": "Caco-2", "experiment": "Anticancer activity against human Caco-2 cells assessed as cell growth inhibition measured after 72 hrs by MTT assay", "type": "functional, cell-based", "conditions": "Caco-2, 72 h"}, "Staphylococcus aureus [5]": {"test_system": "Staphylococcus aureus", "experiment": "Antibacterial activity against Staphylococcus aureus ATCC 25923 assessed as bacterial growth inhibition", "type": "functional, organism-based"}, "Bacillus subtilis [6]": {"test_system": "Bacillus subtilis", "experiment": "Antibacterial activity against Bacillus subtilis ATCC 6633 assessed as bacterial growth inhibition", "type": "functional, organism-based"}, "Bacillus subtilis [7]": {"test_system": "Bacillus subtilis", "experiment": "Antibacterial activity against Bacillus subtilis SCSIO BS01 assessed as bacterial growth inhibition", "type": "functional"}, "Bacillus thuringiensis": {"test_system": "Bacillus thuringiensis", "experiment": "Antibacterial activity against Bacillus thuringiensis SCSIO BT01 assessed as bacterial growth inhibition", "type": "functional"}, "Staphylococcus aureus [8]": {"test_system": "Staphylococcus aureus", "experiment": "Antibacterial activity against Staphylococcus aureus ATCC 29213 assessed as bacterial growth inhibition", "type": "functional"}, "Escherichia coli": {"test_system": "Escherichia coli", "experiment": "Antibacterial activity against Escherichia coli ATCC 25922 assessed as bacterial growth inhibition", "type": "functional"}, "Plasmodium berghei [9]": {"test_system": "Plasmodium berghei", "experiment": "Antimalarial activity against Plasmodium berghei ANKA assessed as reduction in parasite growth measured after 24 hrs by 3[H]-hypoxanthine incorporation assay", "type": "functional, organism-based"}, "Plasmodium falciparum": {"test_system": "Plasmodium falciparum", "experiment": "Antimalarial activity against Plasmodium falciparum NF 54 clone A1A9 assessed as reduction in parasite growth measured after 24 hrs by 3[H]-hypoxanthine incorporation assay", "type": "functional, organism-based", "conditions": "NF 54 clone A1A9, 24 h"}, "Plasmodium berghei [10]": {"test_system": "Plasmodium berghei", "experiment": "Antimalarial activity against Plasmodium berghei assessed as reduction in parasite growth", "type": "functional, organism-based"}, "HGC-27": {"test_system": "HGC-27", "experiment": "Anticancer activity against human HGC-27 cells assessed as cell growth inhibition measured after 24 hrs by CCK-8 assay", "type": "functional, cell-based", "conditions": "HGC-27, 24 h"}, "[11]": {"experiment": "Anticancer activity against human Leucocyte assessed as cell break at 2 x 10^-9M measured after 12 hrs", "type": "functional", "conditions": "dose 2 10^-9M"}}, "data": [{"smiles": "O=C(c1ccccc1O)c1[nH]c(Cl)c(Cl)c1-n1c(C(=O)c2ccccc2O)cc(Cl)c1Cl", "values": [{"measurement": "MIC90", "setting": "Staphylococcus aureus [1]", "result": 0.61, "unit": "µM"}, {"measurement": "IC50", "setting": "HCT-116", "result": 8.8, "unit": "µM"}]}, {"smiles": "COC(=O)C[C@@H]1Cc2cc3c(-c4c(OC)cc(O)c5c(O)c6c(cc45)C[C@@H](CC(=O)OC)OC6=O)c(OC)cc(O)c3c(O)c2C(=O)O1", "values": [{"measurement": "MIC", "setting": "Streptococcus iniae [2]", "result": 0.31, "unit": "µg/mL"}, {"measurement": "Ratio", "setting": "Streptococcus iniae [3]", "result": 100}]}, {"smiles": "COc1ccc2ccc(O)c(-c3c(Br)c(C4CC4)nn3P(=O)(c3ccccc3)c3ccccc3)c2c1", "values": [{"measurement": "IC50", "setting": "A-375", "result": 2570, "unit": "nM"}]}, {"smiles": "O=C(c1ccccc1O)c1[nH]c(Cl)c(Cl)c1-n1c(Cl)c(Cl)c(Br)c1C(=O)c1ccccc1O", "values": [{"measurement": "MIC90", "setting": "Staphylococcus aureus [1]", "result": 1.1, "unit": "µM"}, {"measurement": "IC50", "setting": "HCT-116", "result": 9, "unit": "µM"}]}, {"smiles": "COC(=O)c1cc(-c2ccc(F)cc2)n(-n2c(C(=O)OC)cc3ccccc32)c1C", "values": [{"measurement": "IC50", "setting": "[4]", "result": 18.7, "unit": "µg/mL"}]}, {"smiles": "COC(=O)c1cc(-c2cccc(OC)c2)n(-n2c(-c3ccc4ccccc4c3)cc(C(=O)OC)c2C)c1C", "values": [{"measurement": "IC50", "setting": "[4]", "result": 18.7, "unit": "µg/mL"}]}, {"smiles": "O=C1N[C@@H]2[C@H]3NC(=O)[C@@H]4Cc5cc6ccccc6n5-n5cc(c6ccccc65)C[C@@H]1N[C@H]2[C@@H]3N4", "values": [{"measurement": "IC50", "setting": "Caco-2", "result": 76, "unit": "µM"}]}, {"smiles": "COC(=O)c1cc(-c2ccccc2)n(-n2c(-c3ccc4c(c3)OCO4)cc(C(=O)OC)c2C)c1C", "values": [{"measurement": "IC50", "setting": "[4]", "result": 18.7, "unit": "µg/mL"}]}, {"smiles": "COC(=O)[C@@]12Oc3cc(C)c(-c4c(C)cc5c(c4O)C(=O)C4C(O)=CC[C@@H](O)[C@]4(C(=O)OC)O5)c(O)c3C(=O)C1=C(O)CC[C@H]2O", "note": "(stereo in doubt; 4)", "values": [{"measurement": "IC50", "setting": "Staphylococcus aureus [5]", "result": 6, "unit": "µM"}, {"measurement": "IC50", "setting": "Bacillus subtilis [6]", "result": 2100, "unit": "nM"}]}, {"smiles": "COC(=O)[C@@]12Oc3cc(C)c(-c4c(C)cc5c(c4O)C(=O)C4C(O)=CC[C@@H](O)[C@]4(C(=O)OC)O5)c(O)c3C(=O)C1=C(O)CC[C@H]2O", "note": "(stereo in doubt; 5)", "values": [{"measurement": "IC50", "setting": "Staphylococcus aureus [5]", "result": 18, "unit": "µM"}, {"measurement": "IC50", "setting": "Bacillus subtilis [6]", "result": 700, "unit": "nM"}]}, {"smiles": "C[C@@]1(C(=O)O)[C@@H](O)CC[C@]2(C)c3cc4c5ccccc5n(-n5c6ccccc6c6cc7c(cc65)CC[C@H]5[C@](C)(C(=O)O)[C@@H](O)CC[C@]75C)c4cc3CC[C@@H]12", "note": "(stereo in doubt; 66)", "values": [{"measurement": "MIC", "setting": "Bacillus subtilis [7]; Bacillus subtilis, SCSIO BS01, read-out: MIC", "result": 16, "unit": "µg/mL"}, {"measurement": "MIC", "setting": "Bacillus thuringiensis; Bacillus thuringiensis, SCSIO BT01, read-out: MIC", "result": 4, "unit": "µg/mL"}, {"measurement": "MIC", "setting": "Staphylococcus aureus [8]; Staphylococcus aureus, ATCC 29213, read-out: MIC", "result": 8, "unit": "µg/mL"}, {"measurement": "MIC", "setting": "Escherichia coli; Escherichia coli, ATCC 25922, read-out: MIC", "result": 8, "unit": "µg/mL"}]}, {"smiles": "C[C@@]1(C(=O)O)[C@@H](O)CC[C@]2(C)c3cc4c5ccccc5n(-n5c6ccccc6c6cc7c(cc65)CC[C@H]5[C@](C)(C(=O)O)[C@@H](O)CC[C@]75C)c4cc3CC[C@@H]12", "note": "(stereo in doubt; 67)", "values": [{"measurement": "MIC", "setting": "Bacillus subtilis [7]", "result": 16, "unit": "µg/mL"}, {"measurement": "MIC", "setting": "Bacillus thuringiensis", "result": 8, "unit": "µg/mL"}, {"measurement": "MIC", "setting": "Staphylococcus aureus [8]", "result": 16, "unit": "µg/mL"}, {"measurement": "MIC", "setting": "Escherichia coli", "result": 8, "unit": "µg/mL"}]}, {"smiles": "COc1cc(C)c(-c2ccc(O)c3c2C[C@@H](C)N[C@@H]3C)c2cccc(O)c12", "note": "[DIONCOPHYLLINE C]", "values": [{"measurement": "IC50", "setting": "Plasmodium berghei [9]", "result": 0.015, "unit": "µg/mL"}, {"measurement": "IC50", "setting": "Plasmodium falciparum", "result": 0.014, "unit": "µg/mL"}]}, {"smiles": "COc1cc(C)cc2c(-c3c(O)cc(O)c4c3C[C@@H](C)N[C@@H]4C)ccc(O)c12", "note": "[KORUPENSAMINE A]", "values": [{"measurement": "IC50", "setting": "Plasmodium berghei [10]", "result": 0.56, "unit": "µg/mL"}]}, {"smiles": "CN(C)[C@@H]1C(O)=C(C(N)=O)C(=O)[C@@]2(O)C(O)=C3C(=O)c4c(O)cccc4[C@@](C)(O)[C@H]3[C@H](O)[C@@H]12", "note": "[OXYTETRACYCLINE]", "values": [{"measurement": "MIC", "setting": "Streptococcus iniae [2]", "result": 40, "unit": "µg/mL"}]}, {"smiles": "c1ccc(C(OCCN2CCCCC2)c2ccccc2)cc1", "note": "[PERASTINE]", "values": [{"measurement": "IC50", "setting": "HGC-27", "result": 14.4, "unit": "µM"}]}, {"smiles": "COC1=C(N)C(=O)c2nc(-c3nc(C(=O)O)c(C)c(-c4ccc(OC)c(OC)c4O)c3N)ccc2C1=O", "note": "[STREPTONIGRIN]", "values": [{"measurement": "Activity", "setting": "[11]", "result": 2.82}]}]}
